Values of other authors, collected in patent US8415362B2, “Pyrazolyl substituted pyrrolo[2,3-b]pyrimidines as Janus kinase inhibitors” (Incyte Corporation, priority 2005, dated 2013).
One block for each compound: values may come before it.

Experiments:
[1] = some patients
[2] = test system: myeloid dendritic cells (DCs); settings: DCs arrested at an immature level
[3] = test system: IL-6-dependent MM cell lines
[4] = biological target: T1, JAK3 (Mus musculus, UniProt Q62137)
T1 construct: host or cells: NOD mouse (in vivo)
T1 sequence (Q62137 1-1100): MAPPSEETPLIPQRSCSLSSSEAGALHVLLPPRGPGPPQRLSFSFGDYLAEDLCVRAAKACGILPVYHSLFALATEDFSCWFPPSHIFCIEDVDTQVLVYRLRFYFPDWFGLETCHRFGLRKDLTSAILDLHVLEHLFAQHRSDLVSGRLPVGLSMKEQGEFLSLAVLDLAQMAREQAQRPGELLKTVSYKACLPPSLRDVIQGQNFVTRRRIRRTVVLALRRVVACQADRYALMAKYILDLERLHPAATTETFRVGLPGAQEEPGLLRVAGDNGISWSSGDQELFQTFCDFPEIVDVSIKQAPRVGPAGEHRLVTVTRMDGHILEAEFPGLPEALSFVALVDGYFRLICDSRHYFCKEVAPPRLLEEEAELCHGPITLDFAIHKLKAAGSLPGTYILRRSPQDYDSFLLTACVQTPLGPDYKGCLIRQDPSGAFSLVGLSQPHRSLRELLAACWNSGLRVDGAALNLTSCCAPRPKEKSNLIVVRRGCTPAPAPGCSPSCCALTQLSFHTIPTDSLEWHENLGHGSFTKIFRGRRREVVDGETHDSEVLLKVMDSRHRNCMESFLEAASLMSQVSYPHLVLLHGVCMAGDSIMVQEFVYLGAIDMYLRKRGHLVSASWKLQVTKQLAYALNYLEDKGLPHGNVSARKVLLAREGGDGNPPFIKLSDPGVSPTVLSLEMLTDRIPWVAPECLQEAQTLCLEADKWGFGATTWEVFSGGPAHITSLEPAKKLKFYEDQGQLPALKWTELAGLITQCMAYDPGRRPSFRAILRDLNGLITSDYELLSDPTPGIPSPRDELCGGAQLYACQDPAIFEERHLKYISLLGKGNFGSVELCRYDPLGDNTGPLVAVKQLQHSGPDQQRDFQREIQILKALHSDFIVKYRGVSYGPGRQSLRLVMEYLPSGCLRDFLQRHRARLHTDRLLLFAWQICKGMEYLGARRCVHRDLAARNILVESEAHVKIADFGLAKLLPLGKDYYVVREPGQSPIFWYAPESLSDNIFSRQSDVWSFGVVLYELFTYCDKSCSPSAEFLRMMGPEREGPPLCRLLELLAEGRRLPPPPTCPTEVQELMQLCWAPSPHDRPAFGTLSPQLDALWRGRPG

acneiform rash [1]: induced acneiform rash
Structure (SMILES): C#Cc1cccc(Nc2ncnc3cc(OCCOC)c(OCCOC)cc23)c1 [Tarceva]

Structure (SMILES): COc1cc2ncnc(Nc3ccc(O)c(Br)c3)c2cc1OC [WHI-P-154]
CD40-induced effects (JAK3 activity, costimulatory molecule expression, IL-12 production, allogeneic stimulatory capacity) [2]: prevented these effects

Structure (SMILES): N#C/C(=C\c1ccc(O)c(O)c1)C(=O)NCc1ccccc1 [tyrphostin AG490]
ERK2 and STAT3 phosphorylation ([3]; IL-6-dependent MM cell lines): inhibited
JAK2 kinase activity ([3]; IL-6-dependent MM cell lines): inhibited
apoptosis ([3]; IL-6-dependent MM cell lines): induced
cell proliferation ([3]; IL-6-dependent MM cell lines): suppressed
dormancy of tumor cells ([3]; in some cases, then protects the tumor cells from death): induce dormancy of tumor cells

onset of diabetes ([4]; NOD mouse model of autoimmune type I diabetes): delayed the onset of diabetes
immunomodulatory activity ([4]; mouse, in vivo): potent immunomodulatory activity
Structure (SMILES): COc1cc2ncnc(Nc3ccc(O)cc3)c2cc1OC [JANEX-1]
